Experimental data as given in paper PMC11638965, “Leveraging Dual-Ligase Recruitment to Enhance Protein Degradation via a Heterotrivalent Proteolysis Targeting Chimera” (Journal of the American Chemical Society, 2024).
Several values for one entry are separate records, joined by “and”; a condition that tells them apart may be missing. Equal values may be shown once.

Assays:
BRD2 [1] = target: T1, BRD2 (Homo sapiens, UniProt P25440); experiment: Live cell kinetic HiBiT degradation assay, HiBiT-BRD2 HEK293 cells; type: cell-based; conditions: for λmax BRD2 (degradation rate): HiBiT-BRD2 knock-in HEK293 cells; for DC50: HiBiT-BRD2 CRISPR knock-in HEK293 cells, live cell kinetic degradation, 24 h, read-out: Dmax 50 BRD2
T1 construct: HiBiT, is appended to the N-terminus of endogenous BRD2, BRD3, and BRD4; endogenous in cells
T1 sequence (P25440 whole entry): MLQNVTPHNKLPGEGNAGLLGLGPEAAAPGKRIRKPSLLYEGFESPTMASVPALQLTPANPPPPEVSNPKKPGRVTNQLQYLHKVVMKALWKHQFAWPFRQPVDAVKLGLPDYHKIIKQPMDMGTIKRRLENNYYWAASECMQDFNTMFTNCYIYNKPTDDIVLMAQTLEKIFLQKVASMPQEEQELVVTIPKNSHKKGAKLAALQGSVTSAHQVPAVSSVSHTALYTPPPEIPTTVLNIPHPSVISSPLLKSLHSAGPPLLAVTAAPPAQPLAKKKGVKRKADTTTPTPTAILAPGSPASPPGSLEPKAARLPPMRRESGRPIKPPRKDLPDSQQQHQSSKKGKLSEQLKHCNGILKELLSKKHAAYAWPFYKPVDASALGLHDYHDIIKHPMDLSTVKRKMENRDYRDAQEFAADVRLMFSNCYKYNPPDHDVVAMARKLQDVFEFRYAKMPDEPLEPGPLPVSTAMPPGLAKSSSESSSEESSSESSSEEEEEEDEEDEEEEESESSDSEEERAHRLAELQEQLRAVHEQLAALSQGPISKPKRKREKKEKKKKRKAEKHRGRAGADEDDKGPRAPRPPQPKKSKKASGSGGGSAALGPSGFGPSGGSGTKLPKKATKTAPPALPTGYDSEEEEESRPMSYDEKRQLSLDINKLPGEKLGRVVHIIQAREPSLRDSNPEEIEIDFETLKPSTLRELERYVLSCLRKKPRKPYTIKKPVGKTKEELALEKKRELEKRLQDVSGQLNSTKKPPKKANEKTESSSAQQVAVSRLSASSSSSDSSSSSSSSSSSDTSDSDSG
Description: HEK293 HiBiT-BRD2 (LgBiT stable), HEK293 HiBiT-BRD3 (LgBiT stable), and HEK293 HiBiT-BRD4 (LgBiT stable) were created using CRISPR/Cas9 to insert at HiBiT tag at the N-terminal genomic loci of BRD2, BRD3, or BRD4 in a cell line stably expressing LgBiT protein as described previously.[23]
For kinetic degradation experiments, HEK293 HiBiT-BRD2, 3, or 4 (LgBiT stable) cells and HEK293 HiBiT-BRD4 (LgBiT) CRBN KO and VHL KO cells were plated at 20,000 cells/well in DMEM +10% FBS in white 96-well tissue culture plates and allowed to adhere overnight. The next day, media was removed and 90 μL of prewarmed CO2-independent medium (Gibco) containing Endurazine (Promega) at a 1:100 dilution from stock was added. Plates were incubated at 37 °C for 3 h to allow luminescence to equilibrate. A threefold dilution series of each PROTAC at 10x the desired final concentration was prepared (with the amount of DMSO in each treatment condition kept constant). After luminescence equilibration, a preread luminescence measurement was taken (prior to compound addition) to allow for baseline normalization to account for possible plating differences. Cells were then treated with 10 μL of the prepared PROTAC dilution series (in triplicate or quadruplicate). Treated plates were placed in a GloMax Discover luminometer (Promega) prewarmed to 37 °C and luminescence measurements were obtained every 7 min for 24 h. Kinetic degradation plots were obtained by first normalizing time course luminescence readings in each well to the preread measurement, then to the average value of the DMSO only control at each time point. Data was analyzed using GraphPad Prism (version 8) and excel. Dmax values were identified as the lowest luminescence reading in each well. Rate constant values were calculated using a one phase exponential decay Y = (Y0-Plateau) e(K*^X) + Plateau using Prism (Y0 constrained to 1). Dmax 50 values were calculated by plotting Dmax as a function of concentration, then fitting plots using the following equation: [drawing 1] to determine IC50.

BRD2 [2] = target: T1, BRD2; experiment: Western blot dose-response degradation in HEK293 cells; type: cell-based; conditions: 6 h; for DC50: mean ± S.E.M. of three experiments, values marked b mean ± S.D. of two
Description: (§1) HEK293 cells were obtained from ATCC. HEK293 was cultured in DMEM supplemented with 10% (v/v) fetal bovine serum (FBS), 1% […] and 1% (v/v) penicillin/streptomycin (pen/strep) at 37 °C, 5% CO2, and 95% humidity.
(§2) HEK293 cells were plated at a density of 5 × 10^5 cells per well of a six well plate a day prior to initiation of the experiment. Compounds were dissolved to a 10 mM concentrated stock solution in DMSO from which the compounds were further diluted to a working concentration range of 1 μM to 100 pM in DMEM and was subsequently added to cells at the initiation of the experiment. An additional vehicle control was added to cells alongside compound treatments. Cells were left to incubate with compound for 6 h at 37 °C, 5% CO2, and 95% humidity. Cells were then subsequently washed twice with PBS before being harvested in RIPA buffer supplemented with protease inhibitor cocktail and Benzonase Nuclease before being store at −20 °C.
(§3) Protein concentration was determined using the BCA assay. Samples were then prepared in LDS buffer containing 5% 1 M DTT and subsequently loaded onto NuPAGE 4–12% Bis-Tris Midi gels, followed by the transfer of the proteins onto nitrocellulose membranes. The membranes were blocked for 1 h prior to incubation with the primary antibodies using 5% Milk TBST. Membranes were incubated at 4 °C in either BRD4(Ab128874), BRD3(Ab50818), BRD2(Ab139690), VHL(CST#68547) and CRBN(CST#71810) primary antibody overnight. Following overnight incubation, the membranes were incubated with complementary IRDye 800CW secondary antibody and a hFAB Rhodamine Anti-Tubulin Primary Antibody (loading control) for 1 h and then imaged with a Bio-Rad imager. All Western blots were analyzed for band intensities using Image Lab (Bio-Rad). The data extracted from these blots were then plotted and analyzed using Prism (v. 10.2.2, GraphPad). Linear regression curve fitting was used to calculate pDC50 values. The standard deviation of the pDC50 was calculated for all compounds that had two independent repeats and the standard error of the mean calculated for all compounds that had three independent repeats. All Western blotting figures were developed in Adobe illustrator.

BRD3 = target: T2, BRD3 (Homo sapiens, UniProt Q15059); experiment: as above; type: cell-based; conditions: 6 h, mean ± S.E.M. of three experiments, values marked b mean ± S.D. of two
T2 construct: HiBiT, is appended to the N-terminus of endogenous BRD2, BRD3, and BRD4; endogenous in cells
T2 sequence (Q15059 whole entry): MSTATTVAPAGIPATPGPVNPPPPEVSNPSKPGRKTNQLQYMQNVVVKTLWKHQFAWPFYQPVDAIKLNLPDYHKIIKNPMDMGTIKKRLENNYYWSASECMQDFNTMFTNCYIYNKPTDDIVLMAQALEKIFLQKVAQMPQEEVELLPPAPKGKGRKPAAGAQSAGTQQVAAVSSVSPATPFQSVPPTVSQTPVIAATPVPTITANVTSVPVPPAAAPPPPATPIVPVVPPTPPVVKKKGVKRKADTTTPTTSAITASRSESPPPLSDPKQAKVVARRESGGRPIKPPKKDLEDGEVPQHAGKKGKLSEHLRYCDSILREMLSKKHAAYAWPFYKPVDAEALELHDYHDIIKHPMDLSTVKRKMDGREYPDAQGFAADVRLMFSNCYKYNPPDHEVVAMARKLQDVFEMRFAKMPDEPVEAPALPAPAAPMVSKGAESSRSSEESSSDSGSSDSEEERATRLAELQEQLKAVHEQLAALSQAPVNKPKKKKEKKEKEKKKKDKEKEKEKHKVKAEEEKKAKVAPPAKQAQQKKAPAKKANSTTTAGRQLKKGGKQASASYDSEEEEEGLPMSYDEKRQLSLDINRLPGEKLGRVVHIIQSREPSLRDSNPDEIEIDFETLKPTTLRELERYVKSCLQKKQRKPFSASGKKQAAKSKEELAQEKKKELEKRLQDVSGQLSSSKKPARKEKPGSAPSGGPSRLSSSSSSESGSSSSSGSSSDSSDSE
Description: as §1, §2, §3

BRD4^Long = target: T3, BRD4^Long (Homo sapiens, UniProt O60885); experiment: as above; type: cell-based; conditions: HEK293 cells, 6 h, Western blot; mean ± S.E.M. of three experiments, values marked b mean ± S.D. of two
T3 construct: Western blot data for BET, CRBN and VHL protein levels; endogenous in cells; host or cells: HEK293 (ATCC)
Description: as §1, §2, §3

BRD4^Short = target: T4, BRD4^Short (Homo sapiens, UniProt O60885); experiment: as above; type: cell-based; conditions: 6 h, mean ± S.E.M. of three experiments, values marked b mean ± S.D. of two
T4 construct: Western blot data for BET, CRBN and VHL protein levels; endogenous in cells; host or cells: HEK293 (ATCC)
Description: as §1, §2, §3

K562 cells = experiment: Cell viability assay (CellTiter-Glo); type: cell-based, human; conditions: Homo sapiens; WT K562, 5.12 pM to 10 uM, n = 3 (Table S4)
Description: (§4) Cells were seeded in 96-well plates at a cell density of […], and each treatment was performed in biological triplicates. Cell viability was assessed using the CellTiter-Glo assay (CellTiter-Glo Luminescent Cell Viability Assay, Promega G7573) according to manufacturer instructions. Luminescence signal was measured on a Multilabel Plate Reader Platform Victor X3 model 2030 (PerkinElmer). Survival curves and EC50 values were determined using GraphPad Prism v.10.0.3 by fitting a nonlinear regression to the log10-transformed drug concentration and the relative viability after normalization of each data point to the mean luminescence of the lowest drug concentration.

KBM7 cells = experiment: Cell viability assay (CellTiter-Glo); type: cell-based, human; conditions: Homo sapiens, KBM-7; WT KBM7, 5.12 pM to 10 uM, n = 3 (Table S4)
Description: as §4

CRBN = CRBN (Homo sapiens, UniProt Q96SW2); experiment: Western blot dose-response degradation in HEK293 cells; type: cell-based; parameters: Western blot data for BET, CRBN and VHL protein levels; endogenous in cells; host or cells: HEK293 (ATCC); conditions: for fold weaker degradation of CRBN compared with aniline tethered matched pair: 31 and 32 compared with 23 and 27, respectively; for DC50: HEK293 cells, 6 h, Western blot, mean ± S.E.M. of three experiments, values marked b mean ± S.D. of two
Sequence of CRBN (Q96SW2 whole entry): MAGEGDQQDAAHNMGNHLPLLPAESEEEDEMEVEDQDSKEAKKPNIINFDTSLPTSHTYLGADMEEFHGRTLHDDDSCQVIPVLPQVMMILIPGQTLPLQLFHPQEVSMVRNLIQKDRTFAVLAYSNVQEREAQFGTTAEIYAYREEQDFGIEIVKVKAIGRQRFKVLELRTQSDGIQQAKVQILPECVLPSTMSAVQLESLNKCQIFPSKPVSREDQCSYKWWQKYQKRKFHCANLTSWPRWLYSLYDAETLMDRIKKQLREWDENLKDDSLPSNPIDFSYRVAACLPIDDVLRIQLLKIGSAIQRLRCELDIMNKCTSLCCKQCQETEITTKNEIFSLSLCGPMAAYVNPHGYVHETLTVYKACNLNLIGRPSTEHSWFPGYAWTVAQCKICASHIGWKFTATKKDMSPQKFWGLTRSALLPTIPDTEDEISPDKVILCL
Description: as §1, §2, §3

λmax BRD2 (degradation rate) (BRD2 [1])	DC50 (BRD2 [2]) [nM]	DC50 (BRD3) [nM]	DC50 (BRD4^Long) [nM]	DC50 (BRD4^Short) [nM]	EC50 (K562 cells) [nM]	fold weaker degradation of CRBN compared with aniline tethered matched pair (CRBN; DC50, HEK293 Western blot) [fold]	DC50 (CRBN) [nM]	DC50 (BRD2 [1]) [nM]	Dmax (BRD2 [2]) [%]	onset of the hook effect, BRD2 (BRD2 [2]) [µM]	fold increase in CRBN degradation vs nonmethylated matched pair (CRBN; 27 vs 26, 24 vs 23, DC50, HEK293 Western blot) [fold]	Compound	EC50 (KBM7 cells) [nM]
1.90 h⁻¹ and 1.9 h⁻¹	52 ± 9.4	14 ± 2.9	14 ± 3.9	15 ± 2.4	494	2.9	580 ± 240	–	–	–	–	Cc1ncsc1-c1ccc(CNC(=O)[C@@H]2C[C@@H](O)CN2C(=O)[C@@H](NC(=O)COCC(C)(COCCOCCOCCOC(=O)C[C@@H]2N=C(c3ccc(Cl)cc3)c3c(sc(C)c3C)-n3c(C)nnc32)COCCOCCOCCN2CCN(c3cccc4c3C(=O)N(C3CCC(=O)NC3=O)C4=O)CC2)C(C)(C)C)cc1 (mixture of isomers) [AB3029 (31), (17S)-11-((2-(2-(2-(4-(2-(2,6-dioxopiperidin-3-yl)-1,3-dioxoisoindolin-4-yl)piperazin-1-yl)ethoxy)ethoxy)ethoxy)methyl)-17-((2S,4R)-4-hydroxy-2-((4-(4-methylthiazol-5-yl)benzyl)carbamoyl)pyrrolidine-1-carbonyl)-11,18,18-trimethyl-15-oxo-3,6,9,13-tetraoxa-16-azanonadecyl 2-((S)-4-(4-chlorophenyl)-2,3,9-trimethyl-6H-thieno[3,2-f][1,2,4]triazolo[4,3-a][1,4]diazepin-6-yl)acetate]	294
2.35 h⁻¹	33 ± 34	6.6 ± 0.3	5 ± 5.3	5.3 ± 5.5	80.5	–	150 ± 190	18	–	–	–	Cc1ncsc1-c1ccc(CNC(=O)[C@@H]2C[C@@H](O)CN2C(=O)[C@@H](NC(=O)COCC(C)(COCCOCCNc2cc3c(cc2F)C(=O)N(C2CCC(=O)NC2=O)C3=O)COCCOCCOCCOC(=O)C[C@@H]2N=C(c3ccc(Cl)cc3)c3c(sc(C)c3C)-n3c(C)nnc32)C(C)(C)C)cc1 (mixture of isomers) [AB3126 (29), (17S)-11-((2-(2-((2-(2,6-dioxopiperidin-3-yl)-6-fluoro-1,3-dioxoisoindolin-5-yl)amino)ethoxy)ethoxy)methyl)-17-((2S,4R)-4-hydroxy-2-((4-(4-methylthiazol-5-yl)benzyl)carbamoyl)pyrrolidine-1-carbonyl)-11,18,18-trimethyl-15-oxo-3,6,9,13-tetraoxa-16-azanonadecyl 2-((S)-4-(4-chlorophenyl)-2,3,9-trimethyl-6H-thieno[3,2-f][1,2,4]triazolo[4,3-a][1,4]diazepin-6-yl)acetate]	7.3
–	1 ± 0.2	3.5 ± 0.3	2.2 ± 0.1	2.9 ± 0.3	–	–	113 ± 3.2	–	~80	1	–	Cc1ncsc1-c1ccc(CNC(=O)[C@@H]2C[C@@H](O)CN2C(=O)[C@@H](NC(=O)COCC(COCCOCCOCCNc2cc3c(cc2F)C(=O)N(C2CCC(=O)NC2=O)C3=O)(COCCOCCOCCOC(=O)C[C@@H]2N=C(c3ccc(Cl)cc3)c3c(sc(C)c3C)-n3c(C)nnc32)COCCOCCOCCOC(=O)C[C@@H]2N=C(c3ccc(Cl)cc3)c3c(sc(C)c3C)-n3c(C)nnc32)C(C)(C)C)cc1 (mixture of isomers) [AB3124 (86)]	–
2.04 h⁻¹	43 ± 1.1	8.9 ± 1.5	6.8 ± 1.3	5.9 ± 2.3	134	–	81 ± 11	7.3	–	–	~2.6	Cc1ncsc1-c1ccc([C@H](C)NC(=O)[C@@H]2C[C@@H](O)CN2C(=O)[C@@H](NC(=O)COCC(C)(COCCOCCOCCNc2cccc3c2C(=O)N(C2CCC(=O)NC2=O)C3=O)COCCOCCOCCOC(=O)C[C@@H]2N=C(c3ccc(Cl)cc3)c3c(sc(C)c3C)-n3c(C)nnc32)C(C)(C)C)cc1 (mixture of isomers) [AB3066 (24), (17S)-11-((2-(2-(2-((2-(2,6-dioxopiperidin-3-yl)-1,3-dioxoisoindolin-4-yl)amino)ethoxy)ethoxy)ethoxy)methyl)-17-((2S,4R)-4-hydroxy-2-(((S)-1-(4-(4-methylthiazol-5-yl)phenyl)ethyl)carbamoyl)pyrrolidine-1-carbonyl)-11,18,18-trimethyl-15-oxo-3,6,9,13-tetraoxa-16-azanonadecyl 2-((S)-4-(4-chlorophenyl)-2,3,9-trimethyl-6H-thieno[3,2-f][1,2,4]triazolo[4,3-a][1,4]diazepin-6-yl)acetate]	38
2.04 h⁻¹	28 ± 7.3	6.4 ± 1.9	7.3 ± 2.1	9.4 ± 1.9	192	3.7	730 ± 270	25	–	–	–	Cc1ncsc1-c1ccc(CNC(=O)[C@@H]2C[C@@H](O)CN2C(=O)[C@@H](NC(=O)COCC(C)(COCCOCCOCCOC(=O)C[C@@H]2N=C(c3ccc(Cl)cc3)c3c(sc(C)c3C)-n3c(C)nnc32)COCCOCCOCCN2CCN(c3cc4c(cc3F)C(=O)N(C3CCC(=O)NC3=O)C4=O)CC2)C(C)(C)C)cc1 (mixture of isomers) [AB3030 (32), (17S)-11-((2-(2-(2-(4-(2-(2,6-dioxopiperidin-3-yl)-6-fluoro-1,3-dioxoisoindolin-5-yl)piperazin-1-yl)ethoxy)ethoxy)ethoxy)methyl)-17-((2S,4R)-4-hydroxy-2-((4-(4-methylthiazol-5-yl)benzyl)carbamoyl)pyrrolidine-1-carbonyl)-11,18,18-trimethyl-15-oxo-3,6,9,13-tetraoxa-16-azanonadecyl 2-((S)-4-(4-chlorophenyl)-2,3,9-trimethyl-6H-thieno[3,2-f][1,2,4]triazolo[4,3-a][1,4]diazepin-6-yl)acetate]	78
